The values that follow come from patent US20240270821A1, “GIP/GLP1/GCG TRI-RECEPTOR AGONISTS AND USES THEREOF” (priority 2023, published 2024).

Common to all, as to format: cell-based
One assay concerns the target human GcgR (Homo sapiens, UniProt P47871). Kind of assay: Functional cAMP activity in the presence of 1% HSA. As to conditions: read-out: cAMP Rel EC50, hGcgR.
Assay [1] concerns the target T1, hGIPR (Homo sapiens, UniProt P48546).
T1 sequence (P48546 22-466): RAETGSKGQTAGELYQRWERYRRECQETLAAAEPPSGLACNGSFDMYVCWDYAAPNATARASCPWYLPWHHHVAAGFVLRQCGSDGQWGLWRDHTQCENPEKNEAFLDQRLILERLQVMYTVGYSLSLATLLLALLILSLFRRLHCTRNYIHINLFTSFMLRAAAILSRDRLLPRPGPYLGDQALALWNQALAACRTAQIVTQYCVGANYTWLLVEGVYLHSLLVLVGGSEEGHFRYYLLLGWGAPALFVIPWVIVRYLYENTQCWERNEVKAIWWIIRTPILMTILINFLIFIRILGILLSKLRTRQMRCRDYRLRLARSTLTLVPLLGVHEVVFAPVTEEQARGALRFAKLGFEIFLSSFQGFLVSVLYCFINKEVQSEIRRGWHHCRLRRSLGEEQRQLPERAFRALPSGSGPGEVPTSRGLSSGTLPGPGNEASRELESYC
Kind of assay: Functional cAMP activation in the presence of 0.1% casein (no HSA). The conditions noted are these: read-out: Relative cAMP EC50, hGIPR.

In assay [2] the target is T2, hGLP-1R (Homo sapiens, UniProt P43220). The assay is described as above. As to conditions: read-out: Relative cAMP EC50, hGLP-1R.
T2 sequence (P43220 24-463): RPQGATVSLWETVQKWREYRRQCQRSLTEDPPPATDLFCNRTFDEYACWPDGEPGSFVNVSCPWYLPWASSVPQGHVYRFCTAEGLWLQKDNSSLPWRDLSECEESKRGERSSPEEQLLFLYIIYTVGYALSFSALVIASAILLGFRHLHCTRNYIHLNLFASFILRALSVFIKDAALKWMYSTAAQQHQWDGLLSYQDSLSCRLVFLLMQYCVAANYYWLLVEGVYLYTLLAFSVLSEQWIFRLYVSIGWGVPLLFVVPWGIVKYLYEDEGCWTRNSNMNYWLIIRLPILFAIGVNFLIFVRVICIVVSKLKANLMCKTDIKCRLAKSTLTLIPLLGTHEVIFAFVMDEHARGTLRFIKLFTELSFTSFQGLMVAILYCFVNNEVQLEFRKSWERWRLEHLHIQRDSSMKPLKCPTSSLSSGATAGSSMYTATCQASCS
The target of assay [3] is T1, hGIPR. In words: Functional cAMP activity in the presence of 1% HSA. As to conditions: read-out: cAMP Rel EC50, hGIPR.
For a further assay, the target named is hGcgR (Homo sapiens, UniProt P47871). In words: Functional cAMP activation in the presence of 0.1% casein (no HSA). The conditions noted are these: read-out: Relative cAMP EC50, hGcgR.
hGcgR, sequence (P47871 26-477): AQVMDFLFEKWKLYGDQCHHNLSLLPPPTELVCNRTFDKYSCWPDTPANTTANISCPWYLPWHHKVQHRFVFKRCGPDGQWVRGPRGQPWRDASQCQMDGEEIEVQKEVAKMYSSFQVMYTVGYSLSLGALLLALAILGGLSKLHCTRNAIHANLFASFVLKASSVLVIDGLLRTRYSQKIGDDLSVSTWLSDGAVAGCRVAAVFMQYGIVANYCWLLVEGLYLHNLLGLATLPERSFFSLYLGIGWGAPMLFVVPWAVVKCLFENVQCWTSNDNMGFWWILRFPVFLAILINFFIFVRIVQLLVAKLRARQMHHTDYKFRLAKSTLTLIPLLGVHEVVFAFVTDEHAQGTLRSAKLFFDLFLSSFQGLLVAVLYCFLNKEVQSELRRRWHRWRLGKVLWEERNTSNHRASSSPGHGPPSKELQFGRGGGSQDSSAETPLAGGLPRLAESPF
Assay [4] addresses T2, hGLP-1R. In words: Functional cAMP activity in the presence of 1% HSA. As to conditions: read-out: cAMP Rel EC50, hGLP-1R.
[5] abbreviates: in the presence of 0.1% casein (no HSA), geometric mean.

pEC50: −log10 of the molar value. Like-named read-outs stand apart in the source and are kept apart here. Starred links: 1 amine or outer side, 2 acyl side, 3 side chain; linkers in the order of their positions; H or OH if unused. Non-standard residues stand in square brackets, D forms with d. Residues, ends and D or L forms follow the SMILES beside them. Groups on a side chain read outwards from the residue. No end group written: not given here. *: point of attachment. C20 diacid = O=C(O)CCCCCCCCCCCCCCCCCCC(=O)*; C18 diacid = O=C(O)CCCCCCCCCCCCCCCCC(=O)*; αMePhe(2-F) = C[C@](N)(Cc1ccccc1F)C(=O)O; γGlu = O=C(O)[C@H](CCC(=O)[*:2])N[*:1]; αMe4Pal = C[C@](N)(Cc1ccncc1)C(=O)O; αMeY = C[C@](N)(Cc1ccc(O)cc1)C(=O)O; 4Pal = N[C@@H](Cc1ccncc1)C(=O)O; αMeL = CC(C)C[C@](C)(N)C(=O)O; αMeS = C[C@](N)(CO)C(=O)O; Orn = NCCC[C@H](N)C(=O)O; AEEA = NCCOCCOCC(=O)O; Aib = CC(C)(N)C(=O)O
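Wherever Relative cAMP EC50, hGIPR is given: intracellular cAMP rise after 30 min at 37 °C read by HTRF against a standard curve, scaled between buffer alone (0%) and top control ligand concentration (100%), four-parameter fit.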
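Wherever Relative cAMP EC50, hGLP-1R is given: intracellular cAMP rise after 30 min at 37 °C read by HTRF, normalized between buffer only (0%) and maximal control ligand (100%), four-parameter variable-slope fit.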
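Wherever Relative cAMP EC50, hGcgR is given: intracellular cAMP rise after 30 min at 37 °C, read by HTRF against a cAMP standard curve, scaled from buffer only (0%) to maximal control ligand response (100%).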

human GcgR, sequence (P47871 26-477): as above

In general, pEC50 refers to the EC50 on a negative log10 scale, so that one unit is a factor of ten. Turning to `CC[C@H](C)[C@H](NC(=O)[C@H](Cc1ccccc1)NC(=O)[C@H](C)NC(=O)C(C)(C)NC(=O)[C@H](CCC(N)=O)NC(=O)[C@H](C)NC(=O)[C@H](CCCCNC(=O)COCCOCCNC(=O)CC[C@H](NC(=O)CCCCCCCCCCCCCCCCC(=O)O)C(=O)O)NC(=O)[C@H](CCCN)NC(=O)[C@H](CC(=O)O)NC(=O)[C@H](CC(C)C)NC(=O)[C@](C)(CC(C)C)NC(=O)[C@@H](NC(=O)[C@H](CO)NC(=O)[C@H](Cc1ccncc1)NC(=O)[C@H](CC(=O)O)NC(=O)[C@H](CO)NC(=O)[C@@H](NC(=O)[C@](C)(Cc1ccccc1F)NC(=O)[C@@H](NC(=O)CNC(=O)[C@H](CCC(N)=O)NC(=O)C(C)(C)NC(=O)[C@@H](N)Cc1ccc(O)cc1)[C@@H](C)O)[C@@H](C)O)[C@@H](C)CC)C(=O)N[C@@H](CCC(=O)O)C(=O)N[C@@H](Cc1ccc(O)cc1)C(=O)N[C@@H](CC(C)C)C(=O)N[C@@H](CCC(=O)O)C(=O)N[C@@H](CCC(=O)O)C(=O)NCC(=O)NCC(=O)N1CCC[C@H]1C(=O)N[C@@H](CO)C(=O)N[C@@H](CO)C(=O)NCC(=O)N[C@@H](CCC(=O)O)C(=O)N1CCC[C@H]1C(=O)N1CCC[C@H]1C(=O)N1CCC[C@H]1C(=O)N[C@@H](CO)C(N)=O` [Example 486] (H-Y[Aib]QGT[αMePhe(2-F)]TSD[4Pal]SI[αMeL]LD[Orn]K([AEEA-γGlu-C18 diacid])AQ[Aib]AFIEYLEEGGPSSGEPPPS-NH2), the negative logarithm of the EC50 (pEC50) was 6.19 at human GcgR; 10.58 on hGIPR [1]; 9.43 at hGLP-1R [2]; 8.59 on hGIPR [3]; 8.35 at hGcgR; 7.46 at hGLP-1R [4].

As to “H-Y[Aib]QGTFTSD[4Pal]SK[αMeL]LDKK([AEEA-γGlu-C18 diacid])AQ[αMe4Pal]AFIE[αMe4Pal]LIE[Aib]GPSSGAPPPSGS-NH2 [Example 916]”, the pEC50 at human GcgR was 6.80; on hGIPR [1] (setting [5]), 10.15; on hGLP-1R [2] (setting [5]) it was 8.86; on hGIPR [3] it was 8.32; at hGcgR (setting [5]), 8.96; on hGLP-1R [4], 6.78.

Turning to “H-Y[Aib]QGTFTSD[4Pal]SQ[αMeL]LDKK([AEEA-γGlu-C18 diacid])AQ[αMe4Pal]AFIE[αMe4Pal]LIE[Aib]GPSSGAPPPSGTE-NH2 [Example 1116]”, the pEC50 on human GcgR was 6.44; on hGIPR [1] (setting [5]) it was 9.87; on hGLP-1R [2] (setting [5]) it was 8.33; at hGIPR [3] it was 7.97; on hGcgR (setting [5]) it was 8.09; on hGLP-1R [4] it was 6.70.

As for “Y[Aib]QGT[αMePhe(2-F)]TSDYSKILDKIAQK([AEEA-γGlu-C20 diacid])AFIQYLIEGGPSSGEPPPSEG-NH2 [Example 354]”, the pEC50 was 5.84 on human GcgR; 9.87 on hGIPR [1] (setting [5]); 8.92 at hGLP-1R [2] (setting [5]); 7.62 at hGIPR [3]; 8.10 at hGcgR (setting [5]); 6.76 at hGLP-1R [4].

As to “H-Y[Aib]QGT[αMePhe(2-F)]TSD[4Pal][αMeS]I[αMeL]LD[Orn]K([AEEA-γGlu-C18 diacid])AA[Aib]EFI[dE][αMeY]LIEGGPSSGAPPPSGTEQ-OH [Example 726]”, the pEC50 was 6.65 on human GcgR; 10.89 on hGIPR [1]; 9.61 at hGLP-1R [2]; 8.91 at hGIPR [3]; 8.77 on hGcgR; 7.48 on hGLP-1R [4].

On to “H-Y[Aib]QGT[αMePhe(2-F)]TSD[4Pal]SILLDKK([γGlu-γGlu-C18 diacid])AQ[Aib]AFIEYLEEGGPSSGEPPPSGTEE-NH2 [Example 608]”, for which the pEC50 was 6.17 at human GcgR; 9.91 on hGIPR [1]; 8.73 at hGLP-1R [2]; 8.07 on hGIPR [3]; 8.11 on hGcgR; 6.70 at hGLP-1R [4].

With “H-Y[Aib]QGTFTSD[4Pal]SQ[αMeL]LDKK([AEEA-γGlu-C18 diacid])AQ[αMe4Pal]AFIEYLIE[Aib]GPSSGAPPPSGSGE-NH2 [Example 888]”, the pEC50 at human GcgR was 6.25; on hGIPR [1] (setting [5]) it was 9.77; at hGLP-1R [2] (setting [5]), 8.30; at hGIPR [3] it was 7.51; on hGcgR (setting [5]), 7.52; on hGLP-1R [4], 6.62.

Regarding “H-Y[Aib]QGTFTSD[4Pal]SQ[αMeL]LDKK([AEEA-γGlu-γGlu-C18 diacid])AQ[αMe4Pal]AFIEWLIEGGPSSGAPPPSGS-NH2 [Example 871]”, the negative-log EC50 (pEC50) at human GcgR was 5.69; at hGIPR [1] (setting [5]) it was 9.70; at hGLP-1R [2] (setting [5]) it was 8.53; on hGIPR [3], 7.45; on hGcgR (setting [5]), 7.90; at hGLP-1R [4], 6.64.

In the case of “H-Y[Aib]QGTFTSD[4Pal]SQ[αMeL]LDKK([γGlu-γGlu-C18 diacid])AQ[αMe4Pal]AFIEYLIE[Aib]GPSSGAPPPSGTE-NH2 [Example 1126]”, the pEC50 at human GcgR is 6.34; on hGIPR [1] (setting [5]), 9.76; on hGLP-1R [2] (setting [5]) it was 8.34; on hGIPR [3] it was 7.87; on hGcgR (setting [5]) it was 8.41; at hGLP-1R [4], 6.68.

`CC[C@H](C)[C@H](NC(=O)[C@H](Cc1ccccc1)NC(=O)[C@H](C)NC(=O)C(C)(C)NC(=O)[C@H](CCC(N)=O)NC(=O)[C@H](C)NC(=O)[C@H](CCCCNC(=O)COCCOCCNC(=O)COCCOCCNC(=O)CC[C@H](NC(=O)CCCCCCCCCCCCCCCCC(=O)O)C(=O)O)NC(=O)[C@H](CCCCN)NC(=O)[C@H](CC(=O)O)NC(=O)[C@H](CC(C)C)NC(=O)[C@](C)(CC(C)C)NC(=O)[C@H](CCCN)NC(=O)[C@H](CO)NC(=O)[C@H](Cc1ccccc1)NC(=O)[C@H](CC(=O)O)NC(=O)[C@H](CO)NC(=O)[C@@H](NC(=O)[C@H](Cc1ccccc1)NC(=O)[C@@H](NC(=O)CNC(=O)[C@H](CCC(N)=O)NC(=O)C(C)(C)NC(=O)[C@@H](N)Cc1ccc(O)cc1)[C@@H](C)O)[C@@H](C)O)C(=O)N[C@@H](CCC(=O)O)C(=O)N[C@@H](Cc1ccc(O)cc1)C(=O)N[C@@H](CC(C)C)C(=O)N[C@@H](CC(C)C)C(=O)N[C@@H](CCC(=O)O)C(=O)N[C@H](C)C(=O)NCC(=O)N1CCC[C@H]1C(=O)N[C@@H](CO)C(=O)N[C@@H](CO)C(=O)NCC(=O)N[C@@H](C)C(=O)N1CCC[C@H]1C(=O)N1CCC[C@H]1C(=O)N1CCC[C@H]1C(=O)N[C@@H](CO)C(=O)NCC(=O)N[C@@H](CCC(=O)O)C(N)=O` [Example 128]: the pEC50 at human GcgR is 5.96; at hGIPR [1] (setting [5]) it was 9.51; at hGLP-1R [2] (setting [5]), 8.46; at hGIPR [3], 7.61; at hGcgR (setting [5]), 8.17; on hGLP-1R [4], 6.17.

For “H-Y[Aib]QGTFTSDFSK[αMeL]LDKK([AEEA-γGlu-C20 diacid])AQ[Aib]AFIEYLLEGAPSSGAPPPSEG-NH2 [Example 47]”, the pEC50 at human GcgR is 5.67; on hGIPR [1] (setting [5]), 9.41; at hGLP-1R [2] (setting [5]) it was 8.47; on hGIPR [3], 6.81; at hGcgR (setting [5]), 8.25; on hGLP-1R [4], 5.90.
